Laboratory results taken from patent publication US9302999B2, “Substituted triazoles as herbicides” (E. I. DU PONT DE NEMOURS AND COMPANY, priority 2012, dated 2016).
Read-outs that look alike come from different tables or passages of the source.

Experiments:
Type in all cases: in vivo
soybean (Glycine max) = assay: Test C pre-/postemergence: soybean
Description: (§1) Seeds of plant species selected from blackgrass (Alopecurus myosuroides), bromegrass, downy (downy bromegrass, Bromus tectorum), foxtail, green (green foxtail, Setaria viridis), ryegrass, Italian (Italian ryegrass, Lolium multiflorum), winter wheat (Triticum aestivum), wild oat (Avena fatua), galium (catchweed bedstraw, Galium aparine), bermudagrass (Cynodon dactylon), surinam grass (Brachiaria decumbens), cocklebur (common cocklebur, Xanthium strumarium), corn (Zea mays), large crabgrass (Digitaria sanguinalis), woolly cupgrass (Eriochloa villosa), foxtail, giant (giant foxtail, Setaria faberii), goosegrass (Eleusine indica), johnsongrass (Sorghum halepense), kochia (Kochia scoparia), lambsquarters (Chenopodium album), morningglory (Ipomoea coccinea), nightshade (eastern black nightshade, Solanum ptycanthum), nutsedge, yellow (yellow nutsedge, Cyperus esculentus), pigweed (Amaranthus retroflexus), ragweed (common ragweed, Ambrosia elation), soybean (Glycine max), common (oilseed) sunflower (Helianthus annuus), Russian thistle (Salsola kali) and velvetleaf (Abutilon theophrasti) were planted into a blend of loam soil and sand and treated preemergence with test chemicals formulated in a non-phytotoxic solvent mixture which included a surfactant.
(§2) At the same time, plants selected from these crop and weed species and also barley (winter barley, Hordeum vulgare), canarygrass (Phalaris minor), chickweed (common chickweed, Stellaria media) windgrass (Apera spica-venti) and deadnettle (henbit deadnettle, Lamium amplexicaule) were planted in pots containing Redi-Earth® planting medium (Scotts Company, 14111 Scottslawn Road, Marysville, Ohio 43041) comprising spaghnum peat moss, vermiculite, wetting agent and starter nutrients and treated with postemergence applications of test chemicals formulated in the same manner. Plants ranged in height from 2 to 18 cm (1- to 4-leaf stage) for postemergence treatments.
(§3) Treated plants and controls were maintained in a greenhouse for 13 to 15 days, after which time all species were compared to controls and visually evaluated. Plant response ratings, summarized in Table C, are based on a scale of 0 to 100 where 0 is no effect and 100 is complete control. A dash (-) response means no test result.

[1] = tested on: crabgrass, large (large crabgrass, Digitaria sanguinalis); assay: Test A pre-/postemergence: crabgrass, large; conditions: Digitaria sanguinalis, 240 h; for pest or weed control at 125 g/ha: 125 g ai/ha; for pest or weed control at 500 g/ha: 500 g ai/ha
Summary of the method: (§4)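 Plants in loam–sand blend were treated with test chemicals in non-phytotoxic solvent with surfactant, either as preemergence directed soil spray or postemergence at 2–10 cm, one- to two-leaf stage. After about ten days in greenhouse, injury was rated visually against untreated controls on a 0–100 scale (100 = complete control).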

[2] = tested on: foxtail, giant (giant foxtail, Setaria faberii); assay: Test A pre-/postemergence: foxtail, giant; conditions: Setaria faberi, 240 h; for pest or weed control at 125 g/ha: 125 g ai/ha; for pest or weed control at 500 g/ha: 500 g ai/ha
Summary of the method: as §4

[3] = tested on: velvetleaf (Abutilon theophrasti); assay: Test A pre-/postemergence: velvetleaf; conditions: Abutilon theophrasti, 240 h; for pest or weed control at 125 g/ha: 125 g ai/ha; for pest or weed control at 500 g/ha: 500 g ai/ha
Summary of the method: as §4

[4] = tested on: winter wheat (Triticum aestivum); assay: Test C pre-/postemergence: winter wheat
Summary of the method: (§5)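 Visual injury scored 0–100 (100 = complete control) against untreated controls after 13–15 greenhouse days. Surfactant-containing solvent formulations applied either to soil after sowing (loam/sand) or over 1- to 4-leaf plants, 2–18 cm tall.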

[5] = tested on: nutsedge, yellow (yellow nutsedge, Cyperus esculentus); assay: Test C pre-/postemergence: nutsedge, yellow
Description: as §1, §2, §3

[6] = tested on: galium (catchweed bedstraw, Galium aparine); assay: Test C pre-/postemergence: galium
Description: as §1, §2, §3

[7] = tested on: pigweed (Amaranthus retroflexus); assay: Test C pre-/postemergence: pigweed
Summary of the method: as §5

[8] = tested on: blackgrass (Alopecurus myosuroides); assay: Test C pre-/postemergence: blackgrass
Description: as §1, §2, §3

[9] = tested on: velvetleaf (Abutilon theophrasti); assay: Test C pre-/postemergence: velvetleaf
Description: as §1, §2, §3

[10] = tested on: lambsquarters (Chenopodium album); assay: Test C pre-/postemergence: lambsquarters
Summary of the method: as §5

[11] = tested on: foxtail, giant (giant foxtail, Setaria faberii); assay: Test C pre-/postemergence: foxtail, giant
Summary of the method: as §5

[12] = Postemergence, 31 g ai/ha, scale 0 to 100 (0 no effect, 100 complete control)
[13] = Postemergence, 62 g ai/ha, scale 0 to 100 (0 no effect, 100 complete control)
[14] = Postemergence, 125 g ai/ha, scale 0 to 100, 0 no effect, 100 complete control
[15] = Postemergence, 250 g ai/ha, scale 0 to 100
[16] = Preemergence, 31 g ai/ha, scale of 0 to 100, 0 is no effect, 100 is complete control
[17] = Preemergence, 62 g ai/ha, scale of 0 to 100, 0 is no effect, 100 is complete control
[18] = Preemergence, 125 g ai/ha, scale 0 to 100, 0 no effect, 100 complete control
[19] = Preemergence, 250 g ai/ha, scale 0 to 100, 0 no effect, 100 complete control

Cc1nn(-c2ccc(C(F)(F)F)cc2)nc1Cc1ccnc(C(F)(F)F)c1 [Compound 47, 4-[[5-methyl-2-[4-(trifluoromethyl)phenyl]-2H-1,2,3-triazol-4-yl]methyl]-2-(trifluoromethyl)pyridine]
Plant response rating, Soybean (soybean (Glycine max); [12]): 40 | Plant response rating, Soybean (soybean (Glycine max); [13]): 70 | Plant response rating, Soybean (soybean (Glycine max); [14]): 75 | Plant response rating, Soybean (soybean (Glycine max); [15]): 75 | Plant response rating, Soybean (soybean (Glycine max); [16]): 0 | Plant response rating, Soybean (soybean (Glycine max); [17]): 0 | Plant response rating, Soybean (soybean (Glycine max); [18]): 5 | Plant response rating, Soybean (soybean (Glycine max); [19]): 35 | pest or weed control at 125 g/ha ([1]; post-emergence, Postemergence, 0 to 100 scale, 0 is no effect, 100 is complete control, read-out: Crabgrass, Large plant response rating): 80% | pest or weed control at 500 g/ha ([1]; post-emergence, Postemergence, visual rating on 0 to 100 scale (0 no effect, 100 complete control), approximately ten days, read-out: Crabgrass, Large plant response rating): 90% | pest or weed control at 125 g/ha ([1]; pre-emergence, Preemergence, 0 to 100 scale (0 no effect, 100 complete control), read-out: Plant response rating, Crabgrass, Large): 100% | pest or weed control at 500 g/ha ([1]; pre-emergence, Preemergence, 0 to 100 scale, 0 is no effect, 100 is complete control, read-out: Plant response rating, Crabgrass, Large): 100% | pest or weed control at 125 g/ha ([2]; post-emergence, Postemergence, 0 to 100 scale, 0 is no effect, 100 is complete control, read-out: Foxtail, Giant plant response rating): 80% | pest or weed control at 500 g/ha ([2]; post-emergence, Postemergence, visual rating on 0 to 100 scale (0 no effect, 100 complete control), approximately ten days, read-out: Foxtail, Giant plant response rating): 90% | pest or weed control at 125 g/ha ([2]; pre-emergence, Preemergence, 0 to 100 scale (0 no effect, 100 complete control), read-out: Plant response rating, Foxtail, Giant): 100% | pest or weed control at 500 g/ha ([2]; pre-emergence, Preemergence, 0 to 100 scale, 0 is no effect, 100 is complete control, read-out: Plant response rating, Foxtail, Giant): 100% | pest or weed control at 125 g/ha ([3]; post-emergence, Postemergence, 0 to 100 scale, 0 is no effect, 100 is complete control, read-out: Velvetleaf plant response rating): 100% | pest or weed control at 500 g/ha ([3]; post-emergence, Postemergence, visual rating on 0 to 100 scale (0 no effect, 100 complete control), approximately ten days, read-out: Velvetleaf plant response rating): 100% | pest or weed control at 125 g/ha ([3]; pre-emergence, Preemergence, 0 to 100 scale (0 no effect, 100 complete control), read-out: Plant response rating, Velvetleaf): 80% | pest or weed control at 500 g/ha ([3]; pre-emergence, Preemergence, 0 to 100 scale, 0 is no effect, 100 is complete control, read-out: Plant response rating, Velvetleaf): 100% | Plant response rating, Wheat [4, 12]: 15 | Plant response rating, Wheat [4, 13]: 35 | Plant response rating, Wheat [4, 14]: 45 | Plant response rating, Wheat [4, 15]: 50 | Plant response rating, Wheat [4, 16]: 0 | Plant response rating, Wheat [4, 17]: 5 | Plant response rating, Wheat [4, 18]: 35 | Plant response rating, Wheat [4, 19]: 40 | Plant response rating, Nutsedge, Yellow [5, 12]: 0 | Plant response rating, Nutsedge, Yellow [5, 13]: 0 | Plant response rating, Nutsedge, Yellow [5, 14]: 0 | Plant response rating, Nutsedge, Yellow [5, 15]: 0 | Plant response rating, Nutsedge, Yellow [5, 16]: 0 | Plant response rating, Nutsedge, Yellow [5, 17]: 0 | Plant response rating, Nutsedge, Yellow [5, 18]: 0 | Plant response rating, Nutsedge, Yellow [5, 19]: 0 | Plant response rating, Galium [6, 12]: 80 | Plant response rating, Galium [6, 13]: 80 | Plant response rating, Galium [6, 14]: 95 | Plant response rating, Galium [6, 15]: 98 | Plant response rating, Galium [6, 16]: 85 | Plant response rating, Galium [6, 17]: 100 | Plant response rating, Galium [6, 18]: 100 | Plant response rating, Galium [6, 19]: 100 | Plant response rating, Pigweed [7, 12]: 100 | Plant response rating, Pigweed [7, 13]: 100 | Plant response rating, Pigweed [7, 14]: 100 | Plant response rating, Pigweed [7, 15]: 100 | Plant response rating, Pigweed [7, 16]: 100 | Plant response rating, Pigweed [7, 17]: 100 | Plant response rating, Pigweed [7, 18]: 100 | Plant response rating, Pigweed [7, 19]: 100 | Plant response rating, Blackgrass [8, 12]: 40 | Plant response rating, Blackgrass [8, 13]: 45 | Plant response rating, Blackgrass [8, 14]: 60 | Plant response rating, Blackgrass [8, 15]: 90 | Plant response rating, Blackgrass [8, 16]: 90 | Plant response rating, Blackgrass ([8]; Preemergence, 62 g ai/ha, scale 0 to 100, 0 no effect, 100 complete control): 98 | Plant response rating, Blackgrass [8, 18]: 100 | Plant response rating, Blackgrass [8, 19]: 100 | Plant response rating, Velvetleaf [9, 12]: 65 | Plant response rating, Velvetleaf [9, 13]: 70 | Plant response rating, Velvetleaf [9, 14]: 80 | Plant response rating, Velvetleaf [9, 15]: 90 | Plant response rating, Velvetleaf [9, 16]: 45 | Plant response rating, Velvetleaf [9, 17]: 60 | Plant response rating, Velvetleaf [9, 18]: 90 | Plant response rating, Velvetleaf [9, 19]: 100 | Plant response rating, Lambsquarters [10, 12]: 100 | Plant response rating, Lambsquarters [10, 16]: 100 | Plant response rating, Lambsquarters [10, 17]: 100 | Plant response rating, Lambsquarters [10, 18]: 100 | Plant response rating, Lambsquarters [10, 19]: 100 | Plant response rating, Foxtail, Giant [11, 12]: 65 | Plant response rating, Foxtail, Giant [11, 13]: 65 | Plant response rating, Foxtail, Giant [11, 14]: 80 | Plant response rating, Foxtail, Giant [11, 15]: 98 | Plant response rating, Foxtail, Giant [11, 16]: 95 | Plant response rating, Foxtail, Giant [11, 17]: 100 | Plant response rating, Foxtail, Giant [11, 18]: 100 | Plant response rating, Foxtail, Giant [11, 19]: 100
